Results on 25 molecules are retold here after US20160037775A1, “ACTIVE INGREDIENT COMBINATIONS HAVING INSECTICIDAL AND ACARICIDAL PROPERTIES” (priority 2010, published 2016).

Holding throughout (type): in vivo
One assay has as its system Spodoptera frugiperda. As to the kind of experiment: whole plant or invertebrate. An excerpt:
(§1) If the actual kill rate is greater than that calculated, the kill rate of the combination is superadditive, which means that a synergistic effect is present. In this case, the kill rate actually observed must be greater than the value calculated from the above formula for the expected kill rate (E).
(§2) • 78 parts by weight of acetone • 1.5 parts by weight of dimethylformamide Emulsifier: 0.5 part by weight of alkylaryl polyglycol ether
(§3) To produce an appropriate active ingredient formulation, 1 part by weight of active ingredient is mixed with the stated amounts of solvent and emulsifier, and the concentrate is diluted with emulsifier-containing water to the desired concentration.
After the desired time, the kill in % is determined. 100% means that all caterpillars have been killed; 0% means that none of the caterpillars have been killed. The kill rates determined are entered into Colby's formula.

A further assay has as its system Tetranychus urticae. As to the kind of experiment: Tetranychus test (OP-resistant/spray treatment). The following applies: for pest or weed control at 4 g/ha / Kill rate in % after 6 d: after 6 d.
Excerpt: (§4) The expected action for a given combination of two active ingredients can be calculated according to S. R. Colby, Weeds 15 (1967), 20-22 as follows:
(§5) • X is the kill rate, expressed in % of the untreated control, in the case of use of active ingredient A in an application rate of m g/ha or in a concentration of m ppm, • Y is the kill rate, expressed in % of the untreated control, in the case of use of active ingredient B in an application rate of n g/ha or in a concentration of n ppm, and • E is the kill rate, expressed in % of the untreated control, in the case of use of active ingredients A and B in application rates of m and n g/ha or in a concentration of m and n ppm, then
as §1, §2, §3
Discs of bean leaves (Phaseolus vulgaris) infested by all stages of the two-spotted spider mite (Tetranychus urticae) are sprayed with an active ingredient formulation of the desired concentration.
After the desired period of time, the effect in % is determined. 100% means that all of the spider mites have been killed; 0% means that none of the spider mites have been killed.

In another assay the test system is Myzus persicae. As to the kind of experiment: whole plant or invertebrate.
Excerpt: as §1, §2, §3
After the desired time, the kill in % is determined. 100% means that all aphids have been killed; 0% means that no aphids have been killed. The kill rates determined are entered into Colby's formula.

The subject of a further assay is Phaedon cochleariae. Kind of assay: whole plant or invertebrate.
Excerpt: as §4, §5, §1, §2, §3
Cabbage leaves (Brassica oleracea) are treated by spraying with the active ingredient formulation of the desired concentration and populated with larvae of the mustard beetle (Phaedon cochleariae) while the leaves are still moist.
After the desired period of time, the kill rate in % is determined. 100% means that all beetle larvae have been killed; 0% means that none of the beetle larvae have been killed. The kill rates determined are entered into Colby's formula.

Setting [1] is: Spodoptera frugiperda, 144 h, 0.032 g/ha, after 6 d, read-out: Kill rate in % after 6 d.
Where [2] appears, read: Tetranychus urticae, 144 h, 4 g/ha, applied individually, read-out: Kill rate in % after 6 d.
Setting [3] is: Spodoptera frugiperda, 144 h, 4 g/ha, after 6 d, read-out: Kill rate in % after 6 d.
[4] abbreviates: Phaedon cochleariae, 144 h, 4 g/ha, after 6 d, read-out: Kill rate in % after 6 d.
[5] abbreviates: Phaedon cochleariae, 144 h, after 6 d, read-out: Kill rate in % after 6 d.
Where [6] appears, read: Spodoptera frugiperda, 144 h, 0.8 g/ha, after 6 d, read-out: Kill rate in % after 6 d.
The mark [7] stands for this setting: Myzus persicae, 144 h, 4 g/ha, after 6 d, read-out: Kill rate in % after 6 d.

Read-outs that look alike come from different tables or passages of the source.

In the case of `CC1(C)[C@H](C(=O)O[C@H](C#N)c2cccc(Oc3ccccc3)c2)[C@@H]1/C=C(\Cl)C(F)(F)F` [L-cyhalothrin], the pest or weed control at 0.032 g/ha with Spodoptera frugiperda (setting [1]) turned out to be 0%. Further, the pest or weed control at 4 g/ha in the assay with Tetranychus urticae (setting [2]) is 20%. The pest or weed control at 0.16 g/ha in the assay with Myzus persicae (Myzus persicae, 24 h, 0.16 g/ha, after 1 d, read-out: Kill rate in % after 1 d) is 0%.
With `CNC(=O)Oc1cccc2ccccc12` [carbaryl], the pest or weed control at 4 g/ha in the assay with Spodoptera frugiperda (Spodoptera frugiperda, 144 h, read-out: Kill rate in % after 6 d) was 0%. In addition, the pest or weed control at 500 g/ha in the assay on Tetranychus urticae (Tetranychus urticae, 48 h, read-out: Kill rate in % after 2 d) turned out to be 10%; in the assay with Tetranychus urticae (Tetranychus urticae, 144 h, read-out: Kill rate in % after 6 d) it was 20%; in the assay with Myzus persicae (Myzus persicae, 24 h, read-out: Kill rate in % after 1 d), 0%.
Turning to `CNC(=O)c1cc(Cl)cc(C)c1NC(=O)c1cc(Br)nn1-c1ncccc1Cl` [chloranthraniliprole], the pest or weed control at 0.032 g/ha in the assay with Spodoptera frugiperda (setting [1]) came out at 50%.
Consider `COCCOC(=O)C(C#N)(C(=O)c1ccccc1C(F)(F)F)c1ccc(C(C)(C)C)cc1` (centres unmarked) [cyflumetofen], for which the results for the pest or weed control at 4 g/ha with Spodoptera frugiperda (setting [3]) and in the assay on Phaedon cochleariae (setting [4]) were 17% and 0%, respectively.
Turning to `Nc1nc(N)nc(NC2CC2)n1` [cyromazine], the pest or weed control at 4 g/ha with Spodoptera frugiperda (setting [3]) and in the assay on Phaedon cochleariae (setting [4]) was 0% in each case. In addition, the pest or weed control at 100 g/ha with Myzus persicae (Myzus persicae, 24 h, 100 g/ha, after 1 d, read-out: Kill rate in % after 1 d) is 0%.
On to `Cc1nn(C)c(Oc2ccccc2)c1C=NOCc1ccc(C(=O)OC(C)(C)C)cc1` [fenpyroximate], for which the “Kill rate in % after 2 d” value in the assay with Spodoptera frugiperda (0.8 g/ha) is on record as 0%. Besides, the pest or weed control at 0.8 g/ha in the assay with Tetranychus urticae (Tetranychus urticae, 48 h, 0.8 g/ha, after 2 d, applied individually, read-out: Kill rate in % after 2 d) is 0%.
Turning to `Cc1cc(C(F)(C(F)(F)F)C(F)(F)F)ccc1NC(=O)c1cccc(I)c1C(=O)NC(C)(C)CS(C)(=O)=O` [flubendiamide], in the assay with Tetranychus urticae (Tetranychus urticae, 48 h, 20 g/ha, after 2 d, applied individually, read-out: Kill rate in % after 2 d), the pest or weed control at 20 g/ha came out at 0%. Moreover, the pest or weed control at 0.8 g/ha in the assay on Phaedon cochleariae (setting [5]) came out at 0%.
`O=S(=O)(CCC(F)=C(F)F)c1ncc(Cl)s1` [fluensulfone]: the “Kill rate in % after 6 d” value in the assay on Spodoptera frugiperda (2000 g/ha, after 6 d) came to 0%. Also, the “Kill rate in % after 2 d” value with Tetranychus urticae (2000 g/ha, after 2 d, applied individually) is 0%.
Regarding `O=C(NC(=O)c1c(F)cccc1F)Nc1ccc(Oc2ccc(C(F)(F)F)cc2Cl)cc1F` [flufenoxuron], the pest or weed control at 0.8 g/ha amounted to 0% in the assay on Spodoptera frugiperda (setting [6]) and 0% with Myzus persicae (Myzus persicae, 144 h, 0.8 g/ha, after 6 d, read-out: Kill rate in % after 6 d).
For the molecule `CC1(C)[C@H](C(=O)O[C@H](C#N)c2cccc(Oc3ccccc3)c2)[C@@H]1/C=C(\Cl)C(F)(F)F` [gamma-cyhalothrin], the “Kill rate in % after 2 d” value in the assay on Spodoptera frugiperda (0.032 g/ha) was found to be 17%; in the assay on Tetranychus urticae (0.8 g/ha, after 2 d, applied individually), 0%. Moreover, the “Kill rate in % after 1 d” value in the assay on Myzus persicae (0.032 g/ha, after 1 d) was 0%.
For `COC(=O)N(C(=O)N1CO[C@@]2(C(=O)OC)Cc3cc(Cl)ccc3C2=N1)c1ccc(OC(F)(F)F)cc1` [indoxacarb], the “Kill rate in % after 2 d” value with Spodoptera frugiperda (0.8 g/ha) amounted to 50%. Also, in the assay with Myzus persicae (20 g/ha, after 1 d), the “Kill rate in % after 1 d” value is given as 0%.
Take `O=C(NC(=O)c1c(F)cccc1F)Nc1cc(Cl)c(OC(F)(F)C(F)C(F)(F)F)cc1Cl` (centres unmarked) [lufenuron]: the pest or weed control at 0.8 g/ha in the assay with Spodoptera frugiperda (setting [6]) was found to be 17%. Also, in the assay with Tetranychus urticae (Tetranychus urticae, 48 h, 100 g/ha, after 2 d, applied individually, read-out: Kill rate in % after 2 d), the pest or weed control at 100 g/ha was determined as 0%.
For the molecule `COc1cccc(C(=O)NN(C(=O)c2cc(C)cc(C)c2)C(C)(C)C)c1C` [methoxyfenozide], the pest or weed control at 0.8 g/ha with Spodoptera frugiperda (setting [6]) and in the assay on Phaedon cochleariae (setting [5]) was 0% in each case. Besides, the pest or weed control at 4 g/ha in the assay with Myzus persicae (setting [7]) came out at 0%.
In the case of `O=C(NC(=O)c1c(F)cccc1F)Nc1ccc(OC(F)(F)C(F)OC(F)(F)F)c(Cl)c1` (centres unmarked) [novaluron], the pest or weed control at 0.8 g/ha in the assay with Spodoptera frugiperda (setting [6]) stood at 67%; in the assay on Phaedon cochleariae (setting [5]), 0%.
Regarding `CCCSP(=O)(OCC)Oc1ccc(Br)cc1Cl` (centres unmarked) [profenophos], the pest or weed control at 4 g/ha stood at 17% in the assay on Spodoptera frugiperda (setting [3]) and 0% in the assay on Phaedon cochleariae (setting [4]). Moreover, the “Kill rate in % after 2 d” value with Phaedon cochleariae (4 g/ha) is on record as 0%.
For the molecule `FC(F)(F)c1ccc(OCCCOc2c(Cl)cc(OCC=C(Cl)Cl)cc2Cl)nc1` [pyridalyl], the pest or weed control at 4 g/ha came out at 0% in the assay with Spodoptera frugiperda (setting [3]); 0% in the assay with Phaedon cochleariae (setting [4]); 0% in the assay with Myzus persicae (Myzus persicae, 24 h, 4 g/ha, after 1 d, read-out: Kill rate in % after 1 d).
As for `CCC(C)(C)C(=O)OC1=C(c2ccc(Cl)cc2Cl)C(=O)OC12CCCCC2` [spirodiclofen], the “Kill rate in % after 2 d” value in the assay on Tetranychus urticae (100 g/ha, after 2 d, applied individually) is 0%. Besides, in the assay with Phaedon cochleariae (4 g/ha, after 6 d), the “Kill rate in % after 6 d” value is 0%. The “Kill rate in % after 1 d” value with Myzus persicae (20 g/ha, after 1 d) turned out to be 0%; with Myzus persicae (100 g/ha, after 1 d) it was 0%.
Turning to `CCc1ccc(C(=O)NN(C(=O)c2cc(C)cc(C)c2)C(C)(C)C)cc1` [tebufenozide], the pest or weed control at 0.16 g/ha in the assay with Spodoptera frugiperda (Spodoptera frugiperda, 144 h, 0.16 g/ha, after 6 d, read-out: Kill rate in % after 6 d) is 0%. In addition, the “Kill rate in % after 2 d” value in the assay on Phaedon cochleariae (4 g/ha) amounted to 0%. In addition, in the assay with Myzus persicae (setting [7]), the pest or weed control at 4 g/ha is 0%.
For `CCc1nn(C)c(C(=O)NCc2ccc(C(C)(C)C)cc2)c1Cl` [tebufenpyrad], the pest or weed control at 0.16 g/ha in the assay on Tetranychus urticae (Tetranychus urticae, 48 h, 0.16 g/ha, after 2 d, applied individually, read-out: Kill rate in % after 2 d) came to 0%; in the assay on Phaedon cochleariae (Phaedon cochleariae, 144 h, 0.16 g/ha, after 6 d, read-out: Kill rate in % after 6 d), 0%; with Myzus persicae (Myzus persicae, 144 h, 0.16 g/ha, after 6 d, read-out: Kill rate in % after 6 d) it was 0%. The pest or weed control at 4 g/ha in the assay with Tetranychus urticae (setting [2]) was found to be 40%. The pest or weed control at 0.8 g/ha in the assay on Myzus persicae (Myzus persicae, 24 h, 0.8 g/ha, after 1 d, read-out: Kill rate in % after 1 d) is 0%.
On to `O=C(NC(=O)c1ccccc1Cl)Nc1ccc(OC(F)(F)F)cc1` [triflumuron], for which the pest or weed control at 4 g/ha with Phaedon cochleariae (setting [4]) and in the assay on Myzus persicae (setting [7]) was 0% throughout. Also, the pest or weed control at 20 g/ha with Myzus persicae (Myzus persicae, 144 h, 20 g/ha, after 6 d, read-out: Kill rate in % after 6 d) is 0%.
Regarding `CC1(C)C(C=C(Cl)Cl)C1C(=O)OC(C#N)c1ccc(F)c(Oc2ccccc2)c1` (stereo not drawn) [β-cyfluthrin], the “Kill rate in % after 2 d” value in the assay with Phaedon cochleariae (0.032 g/ha) was 0%. In addition, the “Kill rate in % after 1 d” value in the assay with Myzus persicae (0.032 g/ha, after 1 d) was found to be 0%; with Myzus persicae (0.16 g/ha, after 1 d) it was 70%.
As for abamectin, the “Kill rate in % after 6 d” value was 0% with Tetranychus urticae (0.0064 g/ha, applied individually); 80% with Tetranychus urticae (0.032 g/ha, applied individually); 0% in the assay with Phaedon cochleariae (0.032 g/ha, after 6 d). For the same molecule, in the assay with Myzus persicae (0.16 g/ha, after 1 d), the “Kill rate in % after 1 d” value worked out at 0%.
Turning to emamectin benzoate, the “Kill rate in % after 2 d” value with Tetranychus urticae (0.032 g/ha, after 2 d, applied individually) amounted to 0%. Also, in the assay with Phaedon cochleariae (0.032 g/ha, after 6 d), the “Kill rate in % after 6 d” value was 0%. Also, the “Kill rate in % after 1 d” value amounted to 0% in the assay with Myzus persicae (0.16 g/ha, after 1 d) and 0% with Myzus persicae (0.8 g/ha, after 1 d).
spinetoram: the “Kill rate in % after 6 d” value in the assay on Tetranychus urticae (4 g/ha, applied individually) is 20%; with Phaedon cochleariae (0.16 g/ha, after 6 d), 0%; with Myzus persicae (0.8 g/ha, after 6 d) it was 0%. Moreover, the “Kill rate in % after 1 d” value in the assay with Myzus persicae (4 g/ha, after 1 d) is 0%.
For spinosad, the “Kill rate in % after 6 d” value in the assay on Spodoptera frugiperda (0.16 g/ha, after 6 d) is listed as 0%. Moreover, the “Kill rate in % after 2 d” value with Tetranychus urticae (20 g/ha, after 2 d, applied individually) was found to be 20%.
